Results published in PMC9147192, “Small Molecule Arranged Thermal Proximity Coaggregation (smarTPCA)—A Novel Approach to Characterize Protein–Protein Interactions in Living Cells by Similar Isothermal Dose–Responses” (International Journal of Molecular Sciences, 2022).
Where “and” joins values, the source holds several entries; their conditions need not be identical. Equal values may be shown once. Read-outs that look alike come from different tables or passages of the source.

What was measured:
[1] = target: TRAPPC4 (Homo sapiens, UniProt Q9Y296); test: TPP-CCR in living HL-60 cells
[2] = target: MAPK14 (Homo sapiens, UniProt Q16539); test: CETSA in HL-60 cell extract, immunoblot; format: binding
Description: (§1) For the differentiation of primary and secondary binding effects, CETSA experiments using cell extracts instead of living cells (cell extract test) are proposed in the literature. Therefore, we performed CETSA assays in HL-60 cell extracts under the same conditions as for living cells (Figure 1, Table 1, Supplementary Table S6).
(§2) HL-60 cells were expanded as described above for CETSA and TPP-TR to about 1.25 million cells per ml. 50 mL of the cell suspension, respectively, was transferred into 50 mL conical tubes. After centrifugation (300 rcf, 3 min, r.t.) and removing all of the supernating culture medium, the cells were washed twice with 25 mL PBS (r.t.) by gently resuspending the cells, followed by centrifugation (300 rcf, 3 min, r.t.) and the removal of the supernatant. The cells were transferred into pre-weighed 2 mL LoBind Eppendorf tubes using 1 mL PBS (r.t.), respectively, for resuspending. After centrifugation (300 rcf, 3 min, r.t.) and removing as much as possible of the supernatants, the cell wet weights were determined. The cells were stored at −80 °C after shock-freezing in liquid nitrogen.
(§3) Cell extracts were obtained by four freeze/thaw cycles as described above for CETSA and TPP-TR using 10 µL ice cold PBS supplemented with protease inhibitors per milligram of cell pellet wet weight for the initial resuspension of the pellet, followed by centrifugation (20,000 rcf, 30 min, 4 °C), and the recovery of the supernatant. After determining the protein content, the cell extracts were diluted to 1.8 mg/mL total protein concentration using ice-cold PBS supplemented with protease inhibitors and aliquots of 99 µL in PCR tube strips, and 1.1 mL in LoBind 1.5 mL Eppendorf tubes were shock-frozen in liquid nitrogen and stored at −80 °C or directly processed.
(§4) A fourth aliquot of 1.8 mg/mL HL-60 cell extract was supplemented with 2.2 µL of DMSO. […] After a brief centrifugation using a benchtop centrifuge, the temperature treatment at the ten different temperatures was performed as described in Section 4.1.1.
(§5) Additionally, the preparation of cell extracts containing the fraction of soluble, non-denatured proteins was performed as described in Section 4.1.1. for living cells, but omitting the freeze/thaw steps for cell lysis.
(§6) For each sample set comprising either ten temperature range samples or ten compound concentration range samples, the same volume of the cell extracts containing the fraction of soluble, non-denatured proteins was used for further analysis. This volume was determined using the two lowest temperature samples (36.5 and 41.2 °C) per temperature range sample set so that they contained an average of 5 µg total protein (e.g., 2.78 µL for all temperature range samples of a sample set whose two lowest temperature samples contain an average of 1.8 mg/mL protein). For the compound concentration range experiments, all samples of a set were used for averaging. The calculated volume was respectively transferred into PCR tubes of a tube strip, supplemented with SDS sample buffer (final concentrations: 25 mM dithiothreitol (DTT), 7.5% glycerol, 3% SDS, 37.5 mM Tris/HCl pH 7.0, 0.005% bromophenol blue), incubated for 10 min at r.t. and applied to SDS-PAGE under external cooling in an ice bath (MW marker: PageRuler pre-stained protein ladder (Thermo scientific, Waltham, MA, USA); NuPAGE 4–12% Bis-Tris Gels, 1.0 mm, Midi Protein Gel, 26-well (Thermo fisher scientific); ice cold MOPS SDS running buffer (50 mM MOPS, 50 mM Tris base, 0.1% SDS, 0.003% EDTA (free acid)); 50 V for 15 min, then 200 V for about 1.5 h, i.e., the rest of the run).

[3] = target: MAPKAPK3 (Homo sapiens, UniProt Q16644); test: CETSA in HL-60 cell extract, immunoblot; format: binding
Description: as §1, §2, §3, §4, §5, §6

[4] = target: T1, MAPKAPK2p (Homo sapiens, UniProt P49137); test: CETSA in HL-60 cell extract, immunoblot; format: binding
T1 construct: phosphorylation-dependent electrophoretic mobility shift (PDEMS) of MAPKAPK2, which appeared as a double band; endogenous in cells; host or cells: HL-60 (ATCC CCL-240), living cells or cell extract
Description: as §1, §2, §3, §4, §5, §6

[5] = tested on: MAPK14; set-up: method as in Seashore-Ludlow et al., Biochemistry 2018; details: MAPK14 only, extrapolated to 50°C and extracted from figure 3b; ref Seashore-Ludlow et al., Biochemistry 2018; cited from earlier work
[6] = tested on: MAPK14; details: cited from earlier work
[7] = tested on: MYLK; set-up: method as in PMID 22037378; details: cited from earlier work
[8] = HL-60 cell extract, 20 µM inhibitor, immunoblot
[9] = HL-60 cell extract, 20 µM inhibitor, immunoblot, 20 µM
[10] = MAPKAPK3, cell extract, immunoblot
[11] = MAPKAPK2p, cell extract, immunoblot

T1 sequence (P49137 whole entry): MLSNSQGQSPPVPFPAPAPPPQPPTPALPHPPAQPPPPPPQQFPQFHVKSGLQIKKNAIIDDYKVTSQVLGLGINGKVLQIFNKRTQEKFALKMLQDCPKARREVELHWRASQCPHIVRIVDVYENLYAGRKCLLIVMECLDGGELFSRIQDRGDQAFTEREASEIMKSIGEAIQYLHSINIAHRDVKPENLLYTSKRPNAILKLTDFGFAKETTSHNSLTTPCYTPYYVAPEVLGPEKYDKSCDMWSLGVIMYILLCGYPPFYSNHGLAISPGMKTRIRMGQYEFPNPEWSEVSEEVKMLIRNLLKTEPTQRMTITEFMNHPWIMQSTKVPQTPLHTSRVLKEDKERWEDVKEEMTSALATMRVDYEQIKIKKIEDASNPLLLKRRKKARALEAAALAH
T1 sequence (Q16539 2-360 partner): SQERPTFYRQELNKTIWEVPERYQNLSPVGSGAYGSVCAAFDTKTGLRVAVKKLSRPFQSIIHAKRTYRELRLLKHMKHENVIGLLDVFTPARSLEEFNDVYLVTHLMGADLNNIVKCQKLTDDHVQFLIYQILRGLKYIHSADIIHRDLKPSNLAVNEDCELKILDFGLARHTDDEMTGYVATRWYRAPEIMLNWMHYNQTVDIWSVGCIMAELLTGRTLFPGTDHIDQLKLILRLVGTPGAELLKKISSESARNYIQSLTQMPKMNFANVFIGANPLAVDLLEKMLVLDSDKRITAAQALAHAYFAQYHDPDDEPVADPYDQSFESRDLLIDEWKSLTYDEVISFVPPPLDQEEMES
Sequence of MAPK14 (Homo sapiens, UniProt Q16539) (Q16539 whole entry): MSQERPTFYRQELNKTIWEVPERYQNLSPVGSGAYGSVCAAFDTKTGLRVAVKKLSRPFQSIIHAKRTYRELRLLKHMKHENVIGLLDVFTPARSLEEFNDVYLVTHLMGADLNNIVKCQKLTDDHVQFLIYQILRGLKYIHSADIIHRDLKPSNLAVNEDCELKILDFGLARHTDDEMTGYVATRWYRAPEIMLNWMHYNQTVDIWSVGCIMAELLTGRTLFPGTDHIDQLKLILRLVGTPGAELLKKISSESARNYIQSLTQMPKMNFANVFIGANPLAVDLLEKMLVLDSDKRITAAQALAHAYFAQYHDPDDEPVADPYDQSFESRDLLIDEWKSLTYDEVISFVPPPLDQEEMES
Sequence of MAPKAPK3 (Q16644 whole entry): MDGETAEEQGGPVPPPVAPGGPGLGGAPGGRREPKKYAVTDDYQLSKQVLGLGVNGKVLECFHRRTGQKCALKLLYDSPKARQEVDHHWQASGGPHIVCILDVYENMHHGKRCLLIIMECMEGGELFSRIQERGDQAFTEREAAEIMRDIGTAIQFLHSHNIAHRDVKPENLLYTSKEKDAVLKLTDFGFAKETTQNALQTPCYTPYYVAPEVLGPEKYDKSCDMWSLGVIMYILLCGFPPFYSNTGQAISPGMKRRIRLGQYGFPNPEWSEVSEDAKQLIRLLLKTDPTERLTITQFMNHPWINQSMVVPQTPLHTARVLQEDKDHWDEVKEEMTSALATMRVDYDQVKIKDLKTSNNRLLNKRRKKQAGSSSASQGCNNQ
Sequence of MAPKAPK3 (Q16539 whole entry partner): as the sequence (Q16539 whole entry) above
Sequence of TRAPPC4 (Q9Y296 whole entry): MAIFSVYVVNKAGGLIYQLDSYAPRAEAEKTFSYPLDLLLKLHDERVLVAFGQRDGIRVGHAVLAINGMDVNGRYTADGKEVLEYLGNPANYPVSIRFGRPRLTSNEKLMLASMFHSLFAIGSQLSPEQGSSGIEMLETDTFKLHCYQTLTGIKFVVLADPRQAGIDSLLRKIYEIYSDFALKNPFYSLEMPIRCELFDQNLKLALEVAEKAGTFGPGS

Cn1c(NC[C@@H](N)Cc2ccccc2)nc(-c2ccncc2)c(-c2ccc3ccccc3c2)c1=O [AMG-548]
EC50 [1]: 407 nM
Hill slope (TRAPPC4) ([1]; living HL-60 cells, […] °C, TMT-MS): 0.43
ΔTm at 20 µM ([2]; 20 µM inhibitor, read-out: ΔTm to DMSO in Cell Extract Compared to Living Cells (MAPK14)): -1.16 °C
Tm difference vs DMSO, same protein ([2]; CETSA in cell extract (lysate), MAPK14, inhibitor minus DMSO): 13.60
Tm (fitted melting curve) ([2]; CETSA in cell extract (lysate), MAPK14, in °C): 59.15
Tm (MAPK14) [2, 8]: 59.15 °C
ΔTm at 20 µM ([2]; HL-60 cell extract, 20 µM inhibitor, immunoblot, read-out: ΔTm to DMSO (MAPK14)): 13.6 °C
Tm ([2]; MAPK14, cell extract, immunoblot): 59.15 °C
ΔTm to DMSO in Cell Extract Compared to Living Cells (MAPKAPK3) ([3]; 20 µM inhibitor): −3.99 °C
Tm difference vs DMSO, same protein ([3]; CETSA in cell extract (lysate), MAPKAPK3, inhibitor minus DMSO): 2.63
Tm (fitted melting curve) ([3]; CETSA in cell extract (lysate), MAPKAPK3, in °C): 49.31
Tm (MAPKAPK3) [3, 8]: 49.31 °C
ΔTm to DMSO (MAPKAPK3) [3, 9]: 2.6 °C and 2.63 °C
ΔTm to DMSO in cell extract compared to living cells ([3]; MAPKAPK3, cell extract minus living cells): -3.99 °C
Tm [3, 10]: 49.31 °C
ΔTm to DMSO [3, 10]: 2.63 °C
Tm difference vs DMSO, same protein ([4]; CETSA in cell extract (lysate), MAPKAPK2p, inhibitor minus DMSO): 2.82
Tm (fitted melting curve) ([4]; CETSA in cell extract (lysate), MAPKAPK2p, in °C): 50.95
Tm (MAPKAPK2p) [4, 8]: 50.95 °C
ΔTm to DMSO (MAPKAPK2p) [4, 9]: 2.82 °C
ΔTm to DMSO (MAPKAPK2p) ([4]; HL-60 cell extract, 20 µM inhibitor, immunoblot, listed as AMG548, 20 µM): 2.8 °C
Tm [4, 11]: 50.95 °C
ΔTm to DMSO [4, 11]: 2.82 °C
pEC50, Cell extract [5]: 8.14

C[S+]([O-])c1ccc(-c2nc(-c3ccncc3)c(-c3ccc(F)cc3)[nH]2)cc1 (centres unmarked) [SB203580]
activity against MAPK14 [6]: high activity
activity towards MYLK [7]: inactivity
